How the values were obtained:
[1] = test system: Plasma; assay: Dose normalized fCmax in C57BL/6J mouse plasma at 10 mg/kg, po; assay type: ADME, organism-based; set-up: dose 10 mg/kg, route oral; details: in vivo
[2] = test system: Brain; assay: Dose normalized fCmax in C57BL/6J mouse brain at 10 mg/kg, po; assay type: ADME, organism-based; set-up: dose 10 mg/kg, route oral; details: in vivo

fCmax/dose [1]: 180 nM
fCmax/dose [2]: 88 nM
SMILES: Nc1ncnc2c1c(COc1cccc(Cl)c1)nn2C1CCOCC1
